Test results published in a melting point compilation (Tetko et al.; mined from patent text by program, amines drawn as free bases though some values may be those of a salt).

Compound	melting point [°C]
CNC(=S)C1(c2cnc3ccccc3c2)CCCCC1=O (centres undefined)	235 to 236
C#Cc1ccc2ncsc2c1	47.5 to 49
Cc1noc(NS(=O)(=O)c2ccccc2-c2ccc(-c3ccno3)cc2)c1C	85 to 90
O=C(NC(Cc1ccc(OCc2ccc(F)cc2)cc1)C(=O)O)c1cn2ccc(-c3ccc(Cl)cc3)cc2n1 (centres undefined)	255 to 257
CN(C)CCNC(=O)N1CCC(Oc2ccccc2)C1 (centres undefined)	72 to 73
Nc1nc2c(s1)CCN(CC=Cc1c[nH]c3ccccc13)CC2	155 to 160
Nc1ccc(OC(F)(F)F)cc1CO	75.9 to 77.6
Clc1ccc2c(c1)C(c1ccccc1)=NCc1nccn1-2	146 to 148
CCCCN1CCC(CNC(=O)c2cc(Cl)c(NC)n3ccnc23)CC1	148
CCCC(Sc1nc2ccccc2[nH]1)C(=O)Nc1c(SC)cc(C)nc1SC (centres undefined)	235 to 237
CN1CCN(c2cccc3c2C[C@H](NC(=O)c2ccc(C(=O)N4CCOCC4)cc2)CO3)CC1	222
Clc1ccc2nc(Cl)c3[nH]c4ccccc4c3c2c1	265 to 266
CC(C)(Cl)C(CNC(=O)c1ccc([N+](=O)[O-])o1)N=O (centres undefined)	110 to 112
Cc1cccc(-c2nccc(Cl)n2)c1	74 to 75
O=C(O)CCc1cc(OCCCc2cn(-c3ccc(C(F)(F)F)cn3)nc2OCc2ccccc2)nn1-c1ccccc1	159 to 161
FC(F)(F)c1cc(Cl)c(-c2nc(C(F)(F)F)c(Br)[nH]2)c(Cl)c1	295
COc1cc(OC)c(S(=O)(=O)Cl)cc1-c1nc2nccnc2[nH]1	294 to 296
O=C(Nc1ccc(C(F)(F)F)cc1)OCC1(COC(=O)Nc2ccc(C(F)(F)F)cc2)CSc2ccccc2C1=O	76 to 82
Nc1ccccc1NS(=O)(=O)c1cc(C(=O)O)cc(NCc2ccco2)c1Oc1ccccc1	105 to 110
CN(C)C(=O)c1nc(-c2ccccc2)nc2c1c1ccccc1n2C	193 to 195
COc1ccc(-c2ccc(Cl)cc2C#N)cc1C=O	187 to 189
CCC1CCCCN1C(=O)C=Cc1c(-c2cccc(NC)c2)nn2ccccc12 (centres undefined)	135 to 141
CCc1c(Cl)nc(OCc2ccccc2)nc1OCc1ccccc1	53 to 54
COC(=O)C1CC(=O)N(c2cc(C(F)(F)F)cc(C(F)(F)F)c2)C1 (centres undefined)	68 to 70
COc1ccccc1N(CCN1CCC(C(=O)c2ccc(F)cc2)CC1)S(=O)(=O)c1cccnc1	126 to 128

Compound	melting point [°C]
O=C(Nc1c(Cl)cccc1Cl)C1CC1	166 to 169
CC(=O)N1c2ccccc2C[C@H]1C(N)=O	> 260
NS(=O)(=O)Oc1cccc(I)c1	106 to 108
CC(C)(C)OC(=O)N1CCC[C@H]1C(=O)O[C@H]1CO[C@H]2[C@H]1OC[C@H]2O[N+](=O)[O-]	109 to 111
CCC(O)(C#CC(O)c1ccc(SC)cc1)CC (centres undefined)	64 to 65
CCc1noc(-c2cn(-c3ccccc3OCc3ccc(Cl)cc3)cn2)n1	88 to 89
COC(=O)CS(=O)(=O)Nc1nc(-c2ncccc2C)cc2cccnc12	147 to 148
CCCCCn1c(=O)c2cc(C(=O)OCC)cn2c2ccccc21	151 to 152
c1ccc(NC2=NC3CCCc4cccc(c43)N2)cc1 (centres undefined)	233 to 235
O=C1CC(c2cccc(-n3ccnc3)c2)=Nc2ccc(-c3ccc(F)cc3O)cc2N1	220
CC(C)(C)OC(=O)NCCc1ccc(OCCC2Oc3cc([N+](=O)[O-])ccc3N(Cc3cccc(Cl)c3)C2=O)cc1 (centres undefined)	82 to 85
CCCC(=O)Oc1ccc(C(=O)Nc2ccc3cc(CN4CCCC4)cnc3c2C)cc1	156 to 158
O=C1Nc2ccccc2C1c1nc(Cl)nc2nn(C3CCCC3)cc12 (centres undefined)	270 to 273
O=C1Nc2ccc(Cl)cc2C1CC1CCCCC1 (centres undefined)	152 to 153
CCC(C)(C)c1ccc(OC(C)=O)c(C2(OC(C)=O)C(=O)c3ccccc3C2=O)c1	146 to 151
Cc1ncn(C(=O)Nc2ccccc2)c1Cl	112 to 114
O=C1C=C(Nc2cccc(F)c2)CCN1	188 to 190
CN(C)CC(=O)Nc1cccc2nc(NC3CCc4cc(F)ccc43)ccc12 (racemic)	164
C=C(C)C(=O)OCCCc1ccc(-c2ccc(OC(=O)C(=C)C)cc2)cc1	69
CCCCCCCCCCCCCC(CP(c1ccccc1)c1ccccc1)C(C)CP(c1ccccc1)c1ccccc1 (centres undefined)	105 to 106
CCC(Oc1cccc(N(C)C)c1)C(=O)OC1CC(O)C=C2C=CC(C)C(CCC3CC(O)CC(=O)O3)C21 (mixture of isomers)	124 to 126
CCc1nn(CCO)c(CC)c1Oc1cc(C#N)cc(-n2cncn2)c1	122 to 124
COc1ccc2c(c1)ncc1c(=O)n(-c3ccccc3)oc12	170
Oc1cc2c(c(Cl)c1Cl)C(O)C(C1CCCC1)C2 (centres undefined)	158 to 160
